Laboratory results from patent publication US8309552B2, “Immunomodulating heterocyclic compounds” (Medigene AG, priority 2003, dated 2012).
pEC50: −log10 of the molar value.

Target: T1, CD80-CD28 interaction (Homo sapiens, UniProt P33681)
T1 sequence (P33681 35-242 limits assumed): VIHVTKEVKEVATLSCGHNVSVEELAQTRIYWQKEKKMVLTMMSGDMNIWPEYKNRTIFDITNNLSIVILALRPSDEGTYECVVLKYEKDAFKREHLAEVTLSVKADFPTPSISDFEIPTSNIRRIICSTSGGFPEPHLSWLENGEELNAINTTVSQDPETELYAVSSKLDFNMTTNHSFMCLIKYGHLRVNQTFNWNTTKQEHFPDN
Test: Homogenous Time Resolved Fluorescence (HTRF) assay, cell free
Format: binding
Conditions: cell free HTRF assay; concentration series 100 μM-1.7 nM; 4 hours at room temperature; read-out: Activity (EC50 in the HTRF assay)
Method in brief: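 Europium and APC labels were linked through antibodies to CD28 and CD80 fusion proteins. Compounds were tested at 100 μM-1.7 nM for 4 h at room temperature in 50 mM Tris-HCl, 150 mM NaCl pH7.8, 0.1% BSA. Emission read at 665 and 615 nm (excitation 340 nm); non-specific signal measured with C215 Fab in place of CD80; EC50 reported in bands.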

pEC50 | SMILES
> 6.00 | NC1CCC(NC(=O)c2ccc(-n3[nH]c4c(nnc5cccc(F)c54)c3=O)cc2)CC1 (stereo not shown) [Example 405]
5.00 to 6.00 | O=C(NCCc1ccc(Cl)cc1)c1ccc(-n2[nH]c3c(nnc4c(F)cccc43)c2=O)cc1 [Example 363]
< 5.00 | O=C(NCCC1=CCCCC1)c1ccc(-n2[nH]c3c(nnc4ccccc43)c2=O)cc1 [Example 272]
> 6.00 | CC(C)NCCCNC(=O)c1ccc(-n2[nH]c3c(nnc4cccc(F)c43)c2=O)cc1 [Example 395]
> 6.00 | O=C(NCCCCN1CCCC1)c1ccc(-n2[nH]c3c(nnc4c(F)cc(F)cc43)c2=O)cc1 [Example 416]
> 6.00 | CC(Cc1c[nH]c2ccccc12)NC(=O)c1ccc(-n2[nH]c3c(nnc4c(F)cccc43)c2=O)cc1 (stereo not shown) [Example 359]
> 6.00 | O=C(NC1CCN(CCC2CCCCC2)CC1)c1ccc(-n2[nH]c3c(nnc4c(F)cccc43)c2=O)cc1 [Example 336]
> 6.00 | Cc1ccc2nnc3c(=O)n(-c4ccc(C(=O)NCCCN(C)C)cc4)[nH]c3c2c1 [Example 406]

Second part, the compound before the results:

SMILES | pEC50
NCCCCCCNC(=O)c1ccc(-n2[nH]c3c(nnc4ccccc43)c2=O)cc1 [Example 271] | > 6.00
C=CCNC(=O)c1ccc(-n2[nH]c3c(nnc4ccccc43)c2=O)cc1 [Example 246] | > 6.00
CC(=O)NCCCCNC(=O)Nc1ccc(-n2[nH]c3c(nnc4ccccc43)c2=O)cc1 [Example 222] | > 6.00

Same assay, conditions: cell-free HTRF, compound concentration series 100 μM-1.7 nM, 4 hours at room temperature; read-out: Activity (EC50 in the HTRF assay)

pEC50 | SMILES
5.00 to 6.00 | O=C(NCc1ccc(OC(F)(F)F)cc1)c1ccc(-n2[nH]c3c(nnc4ccccc43)c2=O)cc1 [Example 64]
> 6.00 | O=C(NCCOCCO)Nc1ccc(-n2[nH]c3c(nnc4ccccc43)c2=O)cc1 [Example 145]
> 6.00 | CN(C)CCNC(=O)Nc1ccc(-n2[nH]c3c(nnc4ccccc43)c2=O)cc1 [Example 130]
5.00 to 6.00 | COC(=O)CNC(=O)Nc1ccc(-n2[nH]c3c(nnc4ccccc43)c2=O)cc1 [Example 154]
> 6.00 | CCN(CC)CCNC(=O)c1ccc(-n2[nH]c3c(nnc4ccccc43)c2=O)cc1 [Example 60]
5.00 to 6.00 | CC(C)CNC(=O)Nc1ccc(-n2[nH]c3c(nnc4ccccc43)c2=O)cc1 [Example 138]
5.00 to 6.00 | O=C(NCCN1CCNCC1)c1ccc(-n2[nH]c3c(nnc4ccccc43)c2=O)cc1 [Example 102]
5.00 to 6.00 | CCOC(=O)C(C)NC(=O)c1ccc(-n2[nH]c3c(nnc4ccccc43)c2=O)cc1 (stereo not shown) [Example 118]
5.00 to 6.00 | O=C(NCCCCc1ccccc1)c1ccc(-n2[nH]c3c(nnc4ccccc43)c2=O)cc1 [Example 73]
> 6.00 | CC(C)NCCCNC(=O)c1ccc(-n2[nH]c3c(nnc4ccccc43)c2=O)cc1 [Example 110]
5.00 to 6.00 | CCC(C)CNC(=O)c1ccc(-n2[nH]c3c(nnc4ccccc43)c2=O)cc1 (stereo not shown) [Example 107]
> 6.00 | CCN(CC)CCCC(C)NC(=O)c1ccc(-n2[nH]c3c(nnc4ccccc43)c2=O)cc1 (stereo not shown) [Example 81]
> 6.00 | O=C(NC1CCN(Cc2ccccc2)CC1)c1ccc(-n2[nH]c3c(nnc4ccccc43)c2=O)cc1 [Example 86]
5.00 to 6.00 | CCCCC(C)NC(=O)Nc1ccc(-n2[nH]c3c(nnc4ccccc43)c2=O)cc1 (stereo not shown) [Example 207]
< 5.00 | C=C(C)C(=O)OCCNC(=O)Nc1ccc(-n2[nH]c3c(nnc4ccccc43)c2=O)cc1 [Example 209]
5.00 to 6.00 | O=C(NCCCNC(=O)c1ccc(-n2[nH]c3c(nnc4ccccc43)c2=O)cc1)OCc1ccccc1 [Example 42]

Same assay, conditions: cell-free HTRF, concentration series 100 μM-1.7 nM, 4 hours at room temperature; read-out: Activity (EC50 in the HTRF assay)

pEC50 | SMILES
> 6.00 | CC(F)CCNC(=O)c1ccc(-n2[nH]c3c(nnc4c(F)cccc43)c2=O)cc1 (stereo not shown) [Example 493]
> 6.00 | CCCN(CCCCNC(=O)c1ccc(-n2[nH]c3c(nnc4c(F)cccc43)c2=O)cc1)CC1CC1 [Example 468]
> 6.00 | CC1CCN(C(=O)c2ccc(-n3[nH]c4c(nnc5c(F)cccc54)c3=O)cc2)CC1 [Example 465]

Same assay, conditions: inhibition of the CD80-CD28 interaction, 4 hours at room temperature; read-out: EC50 activity in the HTRF assay

pEC50 | SMILES
5.00 to 6.00 | CCOC(=O)c1ccc(-n2[nH]c3c(nnc4ccccc43)c2=O)cc1 [Example 9, 4-(3-oxo-1,3-dihydro-2H-pyrazolo[4,3-c]cinnolin-2-yl)benzoic acid ethyl ester]
